From US8865934B2 (priority 2010, dated 2014)
Converted amounts (≈) assume the structure as drawn.

Key:
[1] = Stability of ramalin in water by HPLC, alone or with vitamin C; assay type: physicochemical; conditions: for stability (preserved amount by HPLC area) over maintenance time: FIG. 5
Protocol: At varying points of time, 10 μl of a sample was analyzed by semi-preparative reverse phase HPLC using an Agilent Eclipse XDB-C18 column (4.6×150 mm). The solvent system used consisted of 0.1% formic acid-containing water (A line) and 0.1% formic acid-containing methanol (B line). The analysis was carried out for a total of 30 minutes under the following conditions: from 0% to 5% for 15 min, from 5% to 90% for 5 min, from 90% to 0% for 5 min, and finally, from 0% to 5 min. The flow rate was 0.7 ml/min.

[2] = DPPH free radical scavenging (antioxidant activity, electron donating ability); conditions: 0.1 mM DPPH in methanol, 30 minutes at room temperature in the absence of light, absorbance at 517 nm
Protocol: Butylated hydroxyl anisole (BHA) was used as a control.
The mixture was allowed to react at room temperature for 30 minutes in the absence of light, and then the absorbance at 517 nm was measured using an UV-visible spectrophotometer (SCINCO, Korea). As blank, a reaction product between 0.5 ml of 0.1 mM DPPH and 1.5 ml of methanol was used. Electron donating ability (DEA) was calculated using the following equation: Electron donating ability (DEA) %={1−(S/B)}×100 wherein S is the absorbance at 517 nm of the reaction product between DPPH and the sample, and B is the absorbance at 517 nm of the reaction product between DPPH and methanol.

| Structure (SMILES) | stability (preserved amount by HPLC area) over maintenance time ([1]; ramalin alone, stored in water at 25° C. and 38° C.) | stability (preserved amount by HPLC area) over maintenance time ([1]; ramalin mixed with vitamin C (L-ascorbic acid) 1:1 (each 1000 ppm), stored in water) | stability at 38° C. ([1]; ramalin stored alone in water) | stability at 38° C. ([1]; ramalin stored together with vitamin C (1:1, each 1000 ppm) in water) | time within which more than half of ramalin disappears ([1]; room temperature, ramalin alone) | IC50 values [2] |
| --- | --- | --- | --- | --- | --- | --- |
| NC(CCC(=O)NNc1ccccc1O)C(=O)O (stereo not drawn) [Synthesized ramalin, ramalin] | decomposed rapidly | stability of the ramalin was maintained | completely disappear | somewhat stable | ≤ 4 days |  |
| COc1ccc(O)c(C(C)(C)C)c1 [Butylated hydroxyl anisole (BHA), Butylated hydroxyl anisole] |  |  |  |  |  | 1.43 µg/mL (≈ 7.93 µM) |
